The source of these data is US9487489B2, “Halogen-substituted pyrazole derivatives as pest-control agents” (BAYER CROPSCIENCE AKTIENGESELLSCHAFT, priority 2013, dated 2016).

Each structure is given as a SMILES string.

The test system of series [1] is green peach aphid (Myzus persicae). As to the kind of experiment: Myzus persicae spray test (MYZUPE). Conditions: application rate 500 g/ha; Chinese cabbage leaf discs; after 6 days. Type of series: in vivo. The method in brief:
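Chinese cabbage leaf discs infested with all aphid stages sprayed with compound in acetone/DMF with alkylaryl polyglycol ether emulsifier in water. Efficacy (% aphids killed; 100% all dead, 0% none) scored after 6 days.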

Series [2] deals with southern root-knot nematode (Meloidogyne incognita). As to the kind of experiment: Meloidogyne incognita test (MELGIN). Type of series: in vivo. Conditions: application rate 20 ppm; lettuce; after 14 days. As for the experimental part:
K. Meloidogyne incognita Test (MELGIN)
Solvent: 125.0 parts by weight of acetone
To prepare a suitable active compound preparation, 1 part by weight of active compound is mixed with the stated amount of solvent and the concentrate is diluted with water to the desired concentration.
Vessels are filled with sand, active compound solution, an egg/larvae suspension of the southern root-knot nematode (Meloidogyne incognita) and lettuce seeds. The lettuce seeds germinate and the plants develop. On the roots, galls are formed.
After 14 days, the nematicidal efficacy in % is determined by the formation of galls. 100% means that no galls have been found; 0% means that the number of galls on the treated plants corresponds to the untreated control.

The test system of series [3] is caterpillars of the armyworm (Spodoptera frugiperda). As to the kind of experiment: Spodoptera frugiperda spray test (SPODFR). Type of series: in vivo. Conditions: application rate 500 g/ha; maize leaf discs; after 7 days. The method in brief:
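Percent kill read at day 7 on caterpillar-infested maize leaf discs. Discs were first sprayed with aqueous emulsifier-containing (1000 ppm) preparations made from acetone/dimethylformamide solutions, and dried. Scale: 0% none dead, 100% all dead.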

The test system of series [4] is adult cat fleas (Ctenocephalides felis). In words: Ctenocephalides felis oral test (CTECFE). Type of series: in vivo. Conditions: application rate 100 ppm in citrated cattle blood; after 2 days. The method in brief: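 Mortality read at 2 days as percent of fleas killed. Compound predissolved in DMSO, diluted into citrated cattle blood and offered to roughly 20 unfed adult C. felis via parafilm membrane feeder.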

The test system of series [5] is engorged adult female cattle ticks (Boophilus microplus). In words: Boophilus microplus injection test (BOOPMI Inj). In kind it is in vivo. Conditions: application rate 20 μg/animal; injection into abdomen; assessed after 7 days. The method in brief: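 Efficacy is read at 7 days as fertile egg laying (100% = no fertile eggs laid; 0% = all eggs fertile), with eggs of unclear fertility stored until larvae hatch at about 42 days. Five engorged adult females per dose each receive an abdominal injection of 1 μl compound dissolved in DMSO.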

In series [6] the test system is larvae of the mustard beetle (Phaedon cochleariae). In words: Phaedon cochleariae spray test (PHAECO). To be noted: Chinese cabbage leaf discs, after 7 days. Type of series: in vivo. The method in brief: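 Kill of mustard beetle larvae is read as % mortality 7 days after spraying. Spray liquid: active compound in acetone plus dimethylformamide, brought up with water holding 1000 ppm alkylaryl polyglycol ether emulsifier and diluted further in emulsifier-water.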

Series [7] relates to greenhouse red spider mite (Tetranychus urticae). In words: Tetranychus urticae spray test, OP-resistant (TETRUR). Type of series: in vivo. To be noted: bean leaf discs, after 6 days. The method in brief:
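Percent kill, scored 6 days post-spray (0% = none dead, 100% = all dead), on Phaseolus vulgaris leaf discs infested with every life stage of the OP-resistant spider mite. Compound dissolved in acetone plus DMF, diluted to test concentration with emulsifier-containing water (1000 ppm).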

Series [8] is described as follows: logP determination by HPLC on a reversed-phase column (C18), EEC Directive 79/831 Annex V.A8. In kind it is physicochemical. Conditions: HPLC on reversed-phase column (C18), acetonitrile/water with formic acid, EEC Directive 79/831 Annex V.A8. The method in brief:
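Per EEC 79/831 Annex V.A8, values derive from HPLC retention at 2.0 ml/min and 55° C on a 50*4.6 C18 column. The 10→95% acetonitrile gradient (0.1%/0.09% formic acid) lasted 4.25 min plus a 1.25 min hold; mass detection was by MSD.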

The test system of series [9] is L1 larvae of the Australian sheep blowfly (Lucilia cuprina). As to the kind of experiment: Lucilia cuprina test (LUCICU). In kind it is in vivo. Conditions: application rate 100 ppm; after 2 days. The method in brief: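 Percent mortality read at 2 days; 100% = all larvae killed, 0% = none. Test compound, predissolved in DMSO and water-diluted to the wanted level, was mixed into minced horsemeat holding roughly 20 first-instar larvae.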

Series [10] concerns cattle ticks (Boophilus microplus) Parkhurst strain, SP-resistant. As to the kind of experiment: Boophilus microplus dip test (BOOPMI Dip). To be noted: application rate 100 ppm, assessed after 7 days. In kind it is in vivo. The method in brief: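 Adult engorged female SP-resistant Parkhurst ticks (8–10) were fully immersed in compound diluted in water from a DMSO solution, then kept in a climate-controlled room. After 7 days, fertile egg-laying was scored, with larval hatching checked at about 42 days; 100% efficacy means no fertile eggs.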

Series [11] concerns adult cat fleas (Ctenocephalides felis). As to the kind of experiment: Ctenocephalides felis in vitro contact test with adult cat fleas (T1). Conditions: after 48 h. The method in brief: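 Adult cat fleas (Ctenocephalides felis), 5-10 per tube, were exposed to the inner surface of 25 ml test tubes coated with compound in acetone. Tubes were incubated lying flat under ambient conditions. Efficacy was then read by standing tubes upright and knocking the fleas to the floor. Fleas that stayed motionless or moved uncoordinatedly counted as dead or moribund, where 100% means all fleas dead or moribund and 0% means none harmed.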

Series [12] relates to adult dog ticks (Rhipicephalus sanguineus). In words: Rhipicephalus sanguineus in vitro contact test with adult brown dog ticks (T2). To be noted: after 48 h. The method in brief:
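Acetone solutions coated onto test tube walls and floor, giving 5 μg/cm^2 at 900 ppm. Five to ten adult ticks held per tube in the dark at room temperature for 48 h, then heated at 45-50° C for up to 5 min; efficacy is the percentage of dead or moribund ticks unable to climb away.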

Series [13] relates to adult houseflies (Musca domestica). As to the kind of experiment: Musca domestica test (MUSCDO). Conditions: application rate 100 ppm; after 2 days. In kind it is in vivo. The method in brief:
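Groups of 10 adult Musca domestica exposed to a sugar-soaked sponge treated with the water-diluted DMSO preparation of compound at the chosen concentration. Percent kill read at day 2, where 0% means no flies killed and 100% all killed.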

On to `Cn1nc(C(F)(F)C(F)(F)F)c(C(F)(F)F)c1-n1cc(-c2ccc(Cl)c(C(=O)NCC(N)=O)c2)cn1` [Ic-156], for which the efficacy in % in series [1] is listed as 90%; in series [3] it was 100%; in series [6] (application rate 500 g/ha), 100%; in series [7] (application rate 500 g/ha), 100%. The “nematicidal efficacy in % (formation of galls)” value (“nematicidal efficacy in %” for short) in [2] was 90%. Moreover, the “efficacy (kill in %)” value in series [4] stood at 100%. Further, the “efficacy (laying of fertile eggs)” value in [5] was determined as 90%.

On to `Cn1nc(C(F)(F)C(F)(F)F)c(C(F)(F)F)c1-n1cc(-c2ccc(Cl)c(C(=O)NS(C)(=O)=O)c2)cn1` [Ic-26], for which, in [2], the “nematicidal efficacy in %” value was 90%. Also, the logP in [8] came out at 3.58.

As to `CNC(=O)c1cc(-c2cnn(-c3c(C(F)(F)F)c(C(F)(F)C(F)(F)F)nn3C)c2)ccc1Cl` [Ic-152], the efficacy in % in series [1], in [3], in series [6] (application rate 500 g/ha) and in [7] (application rate 500 g/ha) was 100% throughout. The “nematicidal efficacy in %” value in series [2] was found to be 100%. In addition, the “efficacy (kill in %)” value in series [4], in series [9] and in series [13] was 100% in each case. Further, the “efficacy (laying of fertile eggs)” value in [5] and in series [10] was 100% each time. Moreover, the “efficacy (dead or moribund fleas)” value in series [11] (application rate 1 μg/cm^2) and in [11] (application rate 5 μg/cm^2) was 100% throughout. Moreover, the “efficacy (dead or moribund ticks)” value in [12] (application rate 1 μg/cm^2) and in series [12] (application rate 5 μg/cm^2) was 100% in each case.

In the case of `CSCC1CCC1NC(=O)c1cc(-c2cnn(-c3c(C(F)(F)F)c(C(F)(F)C(F)(F)F)nn3C)c2)ccc1Cl` (stereo not drawn) [Ic-120], the “nematicidal efficacy in %” value in [2] worked out at 90%. Moreover, the efficacy in % is 83% in series [6] (application rate 100 g/ha) and 100% in [7] (application rate 100 g/ha). Further, the logP in [8] is 4.56.
